The values that follow come from publication PMC10818749, “Toxicity Studies of Cardiac-Targeting Peptide Reveal a Robust Safety Profile” (Pharmaceutics, 2024).

One series addresses OPRM1 (Homo sapiens, UniProt P35372). Briefly: OPRM1 GPCR cAMP modulation assay. It counts as cell-based. The method, then:
GPCR cAMP Modulation Assays: cAMP Hunter cell lines were grown, plated, and subjected to Eurofins’ DiscoverX HitHunter cAMP XS+ assay. Gs agonist activity, Gi agonist activity, and antagonist activity-induced assays were read using chemiluminescent signal detection. The percentage of activity was calculated for Gs and Gi agonist assays, and the percentage of inhibition was calculated for Gs antagonist assays. […]
cAMP Second ary Messenger Assay pound results in the release of calcium from intracellular stores and DiscoverX has developed a panel of cell lines stably expressing non- an increase in dye fluorescence that is measured in real-time. tagged GPCRs that endogenously signal through cAMP. […]
The enzyme is split into two complementary portions: Enzyme Ac-ceptor (EA) and Enzyme Donor (ED). […] Active enzyme can then convert a chemilumines-cent substrate, generating an output signal detectable on a standard The NHR is tagged with the ProLink™ (PK) component of our EFC microplate reader. assay system, and the SRCP domain is fused to the Enzyme Ac-ceptor component (EA) expressed in the nucleus. […]

Another series deals with B6-wildtype mice. Briefly: Blood pressure pre- and post-CTP injection. It counts as in vivo, mouse. The note with it: CTP 10 mg/Kg i.v.; 6 h post-injection vs pre-injection; six mice, isoflurane. How it is done:
Blood Pressure Pre- and Post-CTP Injection: Six B6-wildtype mice were obtained from the Jackson Laboratory. Blood pressure was taken using a non-invasive blood pressure system from Kent Scientific. Mice were anesthetized using 2.5% isoflurane exposure for 5 min, placed in a tube holder, and warmed using a warming blanket for approximately 15 min before their tails were fitted with blood pressure cuffs. A total of 21 blood pressure readings were taken, and average systolic and diastolic blood pressure calculated. After baseline blood pressure was established, mice were injected intravenously with 10 mg/Kg of CTP, and blood pressure was measured again 6 h post-injection.

For series [1], the target named is T1, HEK-Nav1.5 (Late, Antagonist) (Homo sapiens, UniProt Q14524).
T1 construct: CYL7004QB2DR (late); host or cells: HEK
T1 sequence (Q14524 whole entry): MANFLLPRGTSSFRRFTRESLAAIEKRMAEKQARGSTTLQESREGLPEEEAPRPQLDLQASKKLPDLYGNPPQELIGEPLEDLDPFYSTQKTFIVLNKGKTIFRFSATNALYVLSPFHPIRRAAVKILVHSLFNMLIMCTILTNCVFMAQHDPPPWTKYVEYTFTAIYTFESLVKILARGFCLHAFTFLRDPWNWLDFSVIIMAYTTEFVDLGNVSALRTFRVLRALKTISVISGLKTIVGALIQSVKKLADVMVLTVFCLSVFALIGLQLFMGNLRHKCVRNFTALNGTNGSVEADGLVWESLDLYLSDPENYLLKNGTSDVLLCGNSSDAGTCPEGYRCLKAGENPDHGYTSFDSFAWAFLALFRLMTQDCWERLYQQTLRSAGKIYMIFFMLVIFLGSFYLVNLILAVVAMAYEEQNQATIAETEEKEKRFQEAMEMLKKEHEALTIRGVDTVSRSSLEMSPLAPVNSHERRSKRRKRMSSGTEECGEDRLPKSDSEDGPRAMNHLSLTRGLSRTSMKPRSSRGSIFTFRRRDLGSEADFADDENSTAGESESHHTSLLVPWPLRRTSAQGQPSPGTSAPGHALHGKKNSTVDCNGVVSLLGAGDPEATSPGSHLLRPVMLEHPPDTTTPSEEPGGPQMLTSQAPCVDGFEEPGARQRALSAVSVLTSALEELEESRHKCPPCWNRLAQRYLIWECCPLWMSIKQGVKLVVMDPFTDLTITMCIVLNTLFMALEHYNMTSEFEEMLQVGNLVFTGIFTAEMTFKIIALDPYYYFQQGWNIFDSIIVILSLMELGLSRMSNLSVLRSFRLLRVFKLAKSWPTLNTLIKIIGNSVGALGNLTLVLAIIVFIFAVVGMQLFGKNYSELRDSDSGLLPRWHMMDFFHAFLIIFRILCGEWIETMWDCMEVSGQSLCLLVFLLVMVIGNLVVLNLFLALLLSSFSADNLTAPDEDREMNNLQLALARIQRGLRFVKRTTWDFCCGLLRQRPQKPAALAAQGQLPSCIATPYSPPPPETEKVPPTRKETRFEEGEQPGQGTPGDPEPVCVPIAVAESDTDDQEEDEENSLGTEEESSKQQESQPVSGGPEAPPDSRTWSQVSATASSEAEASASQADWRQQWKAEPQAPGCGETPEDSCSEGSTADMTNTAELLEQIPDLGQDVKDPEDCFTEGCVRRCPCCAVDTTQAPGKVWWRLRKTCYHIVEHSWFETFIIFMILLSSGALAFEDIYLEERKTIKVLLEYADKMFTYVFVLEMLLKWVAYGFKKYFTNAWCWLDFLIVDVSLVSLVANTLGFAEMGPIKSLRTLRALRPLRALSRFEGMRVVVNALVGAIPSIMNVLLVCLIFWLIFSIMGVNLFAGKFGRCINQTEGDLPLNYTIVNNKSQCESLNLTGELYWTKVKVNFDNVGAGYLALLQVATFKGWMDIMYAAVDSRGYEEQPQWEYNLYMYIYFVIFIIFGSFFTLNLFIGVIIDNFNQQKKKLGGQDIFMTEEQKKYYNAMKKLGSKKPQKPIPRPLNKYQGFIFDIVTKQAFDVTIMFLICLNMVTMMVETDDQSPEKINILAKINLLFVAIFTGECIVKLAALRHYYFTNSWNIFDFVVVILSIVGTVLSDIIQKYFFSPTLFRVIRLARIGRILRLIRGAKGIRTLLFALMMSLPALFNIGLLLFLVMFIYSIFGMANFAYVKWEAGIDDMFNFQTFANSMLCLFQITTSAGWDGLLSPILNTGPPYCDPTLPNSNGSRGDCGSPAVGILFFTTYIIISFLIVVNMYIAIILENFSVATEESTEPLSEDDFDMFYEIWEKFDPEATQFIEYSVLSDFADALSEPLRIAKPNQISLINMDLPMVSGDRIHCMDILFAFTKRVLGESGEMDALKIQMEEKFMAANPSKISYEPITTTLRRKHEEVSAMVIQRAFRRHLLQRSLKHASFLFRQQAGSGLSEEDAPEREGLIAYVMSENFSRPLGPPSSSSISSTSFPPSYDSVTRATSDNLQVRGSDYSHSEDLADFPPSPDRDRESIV
It counts as cell-based. The note with it: CTP 0.1 to 30 µM; HEK cells; late current, ramp with 50nM ATXII; antagonist; 0.1% Pluronic F-68.

Another series concerns the target HEK-Nav1.5 (Peak) (Homo sapiens, UniProt Q14524). The series is described as follows: hNav1.5 (Peak) Sodium Channel Assay - Qube APC. The note with it: CTP 0.1 to 30 µM; HEK cells; peak current, step to -15mV; 0.1% Pluronic F-68.

“Also recorded” adds a separate entry of the source. Ends that are not written are not given here.

OPRM1, sequence (P35372 whole entry): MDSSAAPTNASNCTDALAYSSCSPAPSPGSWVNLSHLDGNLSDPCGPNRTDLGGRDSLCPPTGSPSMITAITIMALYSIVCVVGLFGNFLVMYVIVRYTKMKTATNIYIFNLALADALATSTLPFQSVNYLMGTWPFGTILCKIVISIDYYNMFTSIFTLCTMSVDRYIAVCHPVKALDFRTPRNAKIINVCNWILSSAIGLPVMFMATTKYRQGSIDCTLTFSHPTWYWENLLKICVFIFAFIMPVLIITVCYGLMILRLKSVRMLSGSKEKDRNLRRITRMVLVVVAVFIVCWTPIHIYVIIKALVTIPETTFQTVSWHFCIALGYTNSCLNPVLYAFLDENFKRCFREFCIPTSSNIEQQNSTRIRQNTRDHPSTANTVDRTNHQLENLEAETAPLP
HEK-Nav1.5 (Peak), sequence (Q14524 whole entry): as the sequence (Q14524 whole entry) above

On to APWHLSSQYSRT [CTP], for which the antagonist action entry at OPRM1 is recorded as “no antagonist action”. In the series on B6-wildtype mice, the diastolic blood pressure entry is “No significant difference; also recorded: no significant (ns) change”. Further, in the series on B6-wildtype mice, the systolic blood pressure result is “No significant difference; also recorded: no significant (ns) change”. The “Estimated IC50” value in series [1] is reported as “N/C (Not calculable, inhibition >25% was not observed.)”; on HEK-Nav1.5 (Peak) it was “N/C (Not calculable, inhibition >25% was not observed.)”.
